Test results from patent US12560591B2, “Methods of treatment with CD8 T cell-mediated immune therapy” (Providence Health & Services—Oregon, priority 2019, dated 2026).

Legend:
[1] = test system: CXCR3^+CD8^+ T cells; experiment: FACS analysis of CXCR3^+CD8^+ T cells in CT26 tumor bearing mice; format: in vivo, mouse; details: preclinical modeling, 7 days treatment, FIG. 10E
Protocol: FIGS. 10A-10E show CD8^+ T cell proliferation is suppressed by the tumor microenvironment, but TGF13 inhibition can increase tumor trafficking. […] Ki67^+CD8^+ T cells was determined by FACS analysis of lymph nodes and MC38 tumors of WT and ALK5^ΔCD8 mice (FIG. 10B).
Flow Cytometry: For ex vivo cytokine analysis, cells were first treated with a 1× cell activation cocktail of PMA/ionomycin/Brefeldin A (Biolegend) for 5 hours in complete RPMI media. One million cells from single cell suspensions were stained with anti-CD16/CD32 Fc block (1:200, BD Biosciences) and fixable viability 700 dye (1:10,000, BD Biosciences) in 1×PBS for 15 min. at 37° C. prior to surface and intracellular staining with primary antibodies. Surface staining commenced in 200 μl FACS buffer supplemented with a 1:4 dilution of Brilliant Violet stain buffer (BD Biosciences) and fluorescently conjugated antibodies (Table 1) for 30 min at 4° C. in the dark; all are mouse reactive antibodies unless otherwise indicated. Following surface staining cells were washed and fixed in either 2% PFA or Fix/Perm buffer (eBioscience) for 20 min at 4° C. for intracellular stain. Fix/perm buffer was washed with 1× perm wash buffer (eBioscience) and intracellular proteins were stained with fluorescently conjugated ICS antibodies in perm wash buffer for 30 min. at 4° C. in the dark. […]

[2] = test system: MC38 tumors; experiment: MC38 tumor model in ALK5^ΔCD8 mice, survival and tumor growth; format: in vivo, mouse; details: addition of LY2157299 in ALK5^ΔCD8 mice with MC38 tumors, FIGS. 5B and 5C
Protocol: FIG. 5A is a schematic showing the treatment strategy in the MC38 tumor model. C57BL/6 Wild-type (n=6-9/group) and ALK5^ΔCD8 (n=4-10/group) mice were implanted subcutaneously with MC38 tumor cells followed four days later by injection of some groups with anti-CD8a mAb to specifically deplete CD8^+ T cells. In other groups, mice also received LY2157299 via oral gavage twice daily (150 mg/kg) for seven days. Survival of mice was monitored until day 90 (FIG. 5B). […] The number of tumors cured over the total number of tumor-bearing mice is shown in the top right of each graph. Data from a representative experiment is shown reflective of two independent experiments total. ***=p<0.001.
Animal studies and cell culture: C57BL/6, BALB/c, CD8Cre, Lyz2Cre, and Foxp3-eGFP-CreERT2 mice were purchased from the Jackson Laboratories (Bar Harbor, Maine). ALK5flox/flox mice were a generous gift from Andrew Weinberg (Providence Cancer Center). All transgenic mice were on C57BL/6 background. […] Tumors were measured 3×/week until they reached the survival end-point of 144 mm^2. […] Following single cell preparation, cells were washed and resuspended in FACS buffer (1×PBS, 1% BSA, 2 mM EDTA) and counted prior to FACS staining using a Guava EasyCyte cytometer (Millipore). […]
Whether the improved survival and radiosensitivity observed in ALK5^ΔCD8 mice was dependent on CD8^+ T cells was next evaluated. […]

Cc1cccc(-c2nn3c(c2-c2ccnc4ccc(C(N)=O)cc24)CCC3)n1 [LY2157299]
CXCR3^+CD8^+ T cells following treatment [1]: increase in CXCR3^+CD8^+ T cells | survival or tumor growth kinetics [2]: no improvement in survival or tumor growth kinetics
